# Experimental data published in patent US20240024488A1, “COMPOUNDS AND USES THEREOF” (Foghorn Therapeutics Inc., priority 2020, published 2024).
# Legend:
# [1] = target: T1, HiBit-BRG1 fusion protein (Homo sapiens, UniProt P51532); test: HiBiT-BRG1 cell-based degradation assay (Nano-Glo HiBiT Lytic Detection, 24 h); settings: HeLa cell line expressing HiBit-BRG1 and LgBit; for Dmax: read-out: BRG1 HiBit Degradation Maximum (%)
# T1 construct: expressed in transfected cells
# How it was run: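 Luminescence from reconstituted NanoBiT luciferase after lytic detection served as read-out of remaining HiBit-BRG1 in stable HeLa cells, which also express LgBit. Cells were seeded at 5000 per well and incubated with compound for 24 h. DMSO and a 2 μM known degrader defined the control range.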
# HiBit-BRM fusion protein = target: T2, HiBit-BRM fusion protein (Homo sapiens, UniProt P51531); test: HiBiT-BRM cell-based degradation assay (Nano-Glo HiBiT Lytic Detection, 24 h); settings: HeLa cell line expressing HiBiT-BRM; for DC50: read-out: BRM HiBit Degradation IC50
# T2 construct: expressed in transfected cells
# T2 sequence (P51531 whole entry, the tested form may be a part): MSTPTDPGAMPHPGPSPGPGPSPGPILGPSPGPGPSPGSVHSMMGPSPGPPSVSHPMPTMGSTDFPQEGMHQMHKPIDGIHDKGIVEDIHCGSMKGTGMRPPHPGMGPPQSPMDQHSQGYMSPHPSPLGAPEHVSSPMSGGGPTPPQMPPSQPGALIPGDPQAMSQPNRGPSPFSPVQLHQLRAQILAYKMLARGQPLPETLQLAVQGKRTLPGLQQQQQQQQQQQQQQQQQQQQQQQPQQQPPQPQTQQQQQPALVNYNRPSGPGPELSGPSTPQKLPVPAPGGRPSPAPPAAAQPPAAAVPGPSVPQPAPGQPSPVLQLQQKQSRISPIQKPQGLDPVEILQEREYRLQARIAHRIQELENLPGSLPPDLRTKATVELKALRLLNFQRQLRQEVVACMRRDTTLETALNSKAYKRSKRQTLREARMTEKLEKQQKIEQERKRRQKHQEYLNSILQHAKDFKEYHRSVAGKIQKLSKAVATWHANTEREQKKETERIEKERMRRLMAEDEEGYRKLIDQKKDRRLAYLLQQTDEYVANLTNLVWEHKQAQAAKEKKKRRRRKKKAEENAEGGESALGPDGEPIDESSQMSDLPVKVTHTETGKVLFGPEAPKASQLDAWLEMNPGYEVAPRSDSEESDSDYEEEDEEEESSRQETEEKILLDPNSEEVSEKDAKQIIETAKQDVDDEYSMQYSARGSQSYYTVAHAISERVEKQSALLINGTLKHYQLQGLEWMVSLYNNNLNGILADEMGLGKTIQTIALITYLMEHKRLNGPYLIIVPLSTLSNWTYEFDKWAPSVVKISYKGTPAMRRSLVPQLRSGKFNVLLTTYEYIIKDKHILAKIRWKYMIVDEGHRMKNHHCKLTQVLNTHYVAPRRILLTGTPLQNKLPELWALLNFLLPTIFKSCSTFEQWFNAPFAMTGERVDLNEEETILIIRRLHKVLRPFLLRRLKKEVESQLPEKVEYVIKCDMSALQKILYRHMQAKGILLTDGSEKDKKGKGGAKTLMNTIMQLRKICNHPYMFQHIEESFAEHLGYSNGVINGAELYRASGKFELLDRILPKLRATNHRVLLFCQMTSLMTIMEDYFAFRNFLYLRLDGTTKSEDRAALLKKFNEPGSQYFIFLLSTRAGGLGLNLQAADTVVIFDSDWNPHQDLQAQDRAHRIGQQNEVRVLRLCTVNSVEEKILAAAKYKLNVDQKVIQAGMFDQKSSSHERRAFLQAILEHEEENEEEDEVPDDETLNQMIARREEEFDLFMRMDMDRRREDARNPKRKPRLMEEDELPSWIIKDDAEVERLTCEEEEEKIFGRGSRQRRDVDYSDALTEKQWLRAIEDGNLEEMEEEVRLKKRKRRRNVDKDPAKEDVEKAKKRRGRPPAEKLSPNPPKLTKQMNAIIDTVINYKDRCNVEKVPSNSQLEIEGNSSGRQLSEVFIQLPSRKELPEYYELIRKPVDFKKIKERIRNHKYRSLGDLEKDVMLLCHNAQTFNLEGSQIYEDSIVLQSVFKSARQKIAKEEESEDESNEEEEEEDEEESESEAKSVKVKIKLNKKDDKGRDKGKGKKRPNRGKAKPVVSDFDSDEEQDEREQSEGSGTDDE
# How it was run: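 Percent BRM loss was derived from HiBiT luminescence relative to DMSO-treated cells and cells given 2 μM of a known BRM/BRG1 degrader. Treatment lasted 24 h in HiBiT-BRM HeLa cells, with a top final concentration of 30 μM.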
# T1 sequence (P51532 whole entry, the tested form may be a part): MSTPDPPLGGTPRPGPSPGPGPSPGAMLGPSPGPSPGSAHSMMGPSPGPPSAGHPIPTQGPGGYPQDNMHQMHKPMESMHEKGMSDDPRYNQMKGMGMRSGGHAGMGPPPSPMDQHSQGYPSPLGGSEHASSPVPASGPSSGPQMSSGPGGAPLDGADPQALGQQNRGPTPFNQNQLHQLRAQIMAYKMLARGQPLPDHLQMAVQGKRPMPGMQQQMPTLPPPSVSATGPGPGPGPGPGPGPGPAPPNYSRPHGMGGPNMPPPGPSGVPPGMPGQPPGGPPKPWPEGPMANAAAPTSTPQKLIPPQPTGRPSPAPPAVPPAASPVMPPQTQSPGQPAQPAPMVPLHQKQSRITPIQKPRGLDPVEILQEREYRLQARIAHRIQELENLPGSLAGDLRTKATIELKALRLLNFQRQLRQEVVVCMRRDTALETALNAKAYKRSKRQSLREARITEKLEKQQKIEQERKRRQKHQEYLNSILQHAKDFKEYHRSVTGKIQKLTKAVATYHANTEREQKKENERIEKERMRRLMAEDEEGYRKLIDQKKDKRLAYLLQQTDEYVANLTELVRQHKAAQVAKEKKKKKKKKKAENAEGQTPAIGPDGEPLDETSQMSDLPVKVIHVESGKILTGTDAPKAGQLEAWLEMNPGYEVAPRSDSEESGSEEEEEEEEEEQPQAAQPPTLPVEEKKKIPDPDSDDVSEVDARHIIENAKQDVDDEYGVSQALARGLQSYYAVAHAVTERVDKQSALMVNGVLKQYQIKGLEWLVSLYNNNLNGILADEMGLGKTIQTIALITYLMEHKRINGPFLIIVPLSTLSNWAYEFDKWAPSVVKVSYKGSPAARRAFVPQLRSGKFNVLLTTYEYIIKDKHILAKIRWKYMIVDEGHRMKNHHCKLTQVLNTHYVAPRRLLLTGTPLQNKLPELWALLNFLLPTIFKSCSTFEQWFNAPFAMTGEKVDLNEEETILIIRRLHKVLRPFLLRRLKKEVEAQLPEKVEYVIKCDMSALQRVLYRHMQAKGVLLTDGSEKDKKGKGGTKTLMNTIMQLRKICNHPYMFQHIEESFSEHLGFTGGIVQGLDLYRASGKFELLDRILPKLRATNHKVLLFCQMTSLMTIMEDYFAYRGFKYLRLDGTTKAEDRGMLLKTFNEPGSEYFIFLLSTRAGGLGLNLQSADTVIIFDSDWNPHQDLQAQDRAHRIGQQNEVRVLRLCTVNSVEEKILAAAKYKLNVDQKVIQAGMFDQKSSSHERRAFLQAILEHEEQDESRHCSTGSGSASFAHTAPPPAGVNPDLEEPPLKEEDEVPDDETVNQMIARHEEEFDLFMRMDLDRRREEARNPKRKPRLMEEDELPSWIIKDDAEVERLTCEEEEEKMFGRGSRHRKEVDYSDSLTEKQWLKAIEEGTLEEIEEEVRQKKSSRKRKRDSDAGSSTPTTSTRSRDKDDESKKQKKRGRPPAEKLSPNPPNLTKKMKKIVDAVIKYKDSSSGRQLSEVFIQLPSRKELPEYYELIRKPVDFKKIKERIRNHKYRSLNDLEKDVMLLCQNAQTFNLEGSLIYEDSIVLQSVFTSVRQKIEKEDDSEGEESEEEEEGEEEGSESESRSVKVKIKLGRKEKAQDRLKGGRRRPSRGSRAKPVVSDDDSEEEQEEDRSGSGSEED
Dmax [1] [%],DC50 (HiBit-BRM fusion protein) [µM],DC50 ([1]; read-out: BRMG1 HiBit Degradation IC50) [µM],SMILES,BRM HiBit Degradation Maximum (%) (HiBit-BRM fusion protein)
< 50,> 0.01,–,"Cc1ncsc1-c1ccc([C@H](C)NC(=O)[C@@H]2C[C@@H](O)CN2C(=O)[C@@H](c2cc(OCCN3C[C@@H]4[C@H](C3)[C@H]4c3cc4cc(-c5cccc(Cl)c5O)nnc4[nH]3)no2)C(C)C)cc1 (racemic) [Compound 110, (2S,4R)-1-((R)-2-(3-(2-((1R,5S,6R)-6-(3-(3-chloro-2-hydroxyphenyl)-7H-pyrrolo[2,3-c]pyridazin-6-yl)-3-azabicyclo[3.1.0]hexan-3-yl)ethoxy)isoxazol-5-yl)-3-methylbutanoyl)-4-hydroxy-N-((S)-1-(4-(4-methylthiazol-5-yl)phenyl)ethyl)pyrrolidine-2-carboxamide]",A (“A” indicates maximum degradation ≥ 75%)
< 50,> 0.01,–,Cc1ncsc1-c1ccc([C@H](C)NC(=O)[C@@H]2C[C@@H](O)CN2C(=O)[C@@H](c2cc(OCCN3CC(c4[nH]c5nnc(-c6ccccc6O)cc5c4Br)C3)no2)C(C)C)cc1 (racemic) [Compound 120],A (“A” indicates maximum degradation ≥ 75%)
< 50,> 0.1,–,"Cc1ncsc1-c1ccc([C@H](C)NC(=O)[C@@H]2C[C@@H](O)CN2C(=O)[C@@H](c2cc(OCCN3CC(c4[nH]c5nnc(-c6ccccc6O)cc5c4F)C3)no2)C(C)C)cc1 (racemic) [Compound 121, (2S,4R)-1-[(2R)-2-[3-(2-{3-[5-fluoro-3-(2-hydroxyphenyl)-7H-pyrrolo[2,3-c]pyridazin-6-yl]azetidin-1-yl}ethoxy)-1,2-oxazol-5-yl]-3-methylbutanoyl]-4-hydroxy-N-[(1S)-1-[4-(4-methyl-1,3-thiazol-5-yl)phenyl]ethyl]pyrrolidine-2-carboxamide]",A (“A” indicates maximum degradation ≥ 75%)

# Second part, the molecule before the results:
SMILES,Dmax [1] [%],DC50 (HiBit-BRM fusion protein) [µM],DC50 ([1]; read-out: BRMG1 HiBit Degradation IC50) [µM],BRM HiBit Degradation Maximum (%) (HiBit-BRM fusion protein)
"Cc1ncsc1-c1ccc([C@H](C)NC(=O)[C@@H]2C[C@@H](O)CN2C(=O)[C@@H](c2cc(N3CCC(N4CC5(Cc6cc(-c7ccccc7O)nnc6N5)C4)CC3)no2)C(C)C)cc1 (racemic) [Compound 98, (2S,4R)-4-hydroxy-1-((R)-2-(3-(4-(3′-(2-hydroxyphenyl)-5′,7′-dihydrospiro[azetidine-3,6′-pyrrolo[2,3-c]pyridazin]-1-yl)piperidin-1-yl)isoxazol-5-yl)-3-methylbutanoyl)-N-((S)-1-(4-(4-methylthiazol-5-yl)phenyl)ethyl)pyrrolidine-2-carboxamide]",< 50,> 0.01,–,A (“A” indicates maximum degradation ≥ 75%)
"Cc1ncsc1-c1ccc([C@H](C)NC(=O)[C@@H]2C[C@@H](O)CN2C(=O)[C@@H](c2cc(N3CCC(N(C)[C@H]4CCc5[nH]c6nnc(-c7ccccc7O)cc6c5C4)CC3)no2)C(C)C)cc1 (racemic) [Compound 111, (2S,4R)-4-hydroxy-1-((R)-2-(3-(4-(((S)-3-(2-hydroxyphenyl)-6,7,8,9-tetrahydro-5H-pyridazino[3,4-b]indol-6-yl)(methyl)amino)piperidin-1-yl)isoxazol-5-yl)-3-methylbutanoyl)-N-((S)-1-(4-(4-methylthiazol-5-yl)phenyl)ethyl)pyrrolidine-2-carboxamide]",> 50,> 0.01,> 0.1,A (“A” indicates maximum degradation ≥ 75%)
"Cc1ncsc1-c1ccc([C@H](C)NC(=O)[C@@H]2C[C@@H](O)CN2C(=O)[C@@H](c2cc(C3CCN(Cc4cc5cc(-c6ccccc6O)nnc5[nH]4)CC3)no2)C(C)C)cc1 (racemic) [Compound 118, (2S,4R)-4-hydroxy-1-((R)-2-(3-(1-((3-(2-hydroxyphenyl)-7H-pyrrolo[2,3-c]pyridazin-6-yl)methyl)piperidin-4-yl)isoxazol-5-yl)-3-methylbutanoyl)-N-((S)-1-(4-(4-methylthiazol-5-yl)phenyl)ethyl)pyrrolidine-2-carboxamide]",< 50,> 0.01,–,A (“A” indicates maximum degradation ≥ 75%)
